What was measured:
[1] = target: Tyk2/JAK2 (heterodimeric complex) (Homo sapiens (Human), UniProt P29597); assay: IL-12 Induced pSTAT4 in Human PBMC; format: cell-based; details: 1.7 ng/mL IL-12
Description: The IL-12 Induced pSTAT4 assay evaluates the inhibition of IL-12 induced STAT4 phophorylation mediated by Tyk2/JAK2 (heterodimeric complex).

[2] = target: human TYK2 (JH2domain-pseudokinase) (Homo sapiens (Human), UniProt P29597); assay: TYK2 JH2 Domain Binding Assay (KINOMEscan)
Method in brief: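 Competition binding of a DNA-tagged fusion of human TYK2 JH2 pseudokinase (G556–D888) with NFkB DNA-binding domain, from HEK293 extracts (<0.1 nM final), against immobilised ligand beads; 1 h shaking at room temperature, 0.9% DMSO. Bound kinase quantified by qPCR.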

[3] = target: Tyk2 kinase domain (DH1) (Homo sapiens (Human), UniProt P29597); assay: Tyk2 Radioactive Kinase Assay; format: biochemical; details: 10 μM compound, 10 μM ATP; for inhibition at 10 µM: read-out: Tyk2 JH1% Inhibition @ 10 μM
Tyk2 kinase domain (DH1), sequence (P29597 897-1176): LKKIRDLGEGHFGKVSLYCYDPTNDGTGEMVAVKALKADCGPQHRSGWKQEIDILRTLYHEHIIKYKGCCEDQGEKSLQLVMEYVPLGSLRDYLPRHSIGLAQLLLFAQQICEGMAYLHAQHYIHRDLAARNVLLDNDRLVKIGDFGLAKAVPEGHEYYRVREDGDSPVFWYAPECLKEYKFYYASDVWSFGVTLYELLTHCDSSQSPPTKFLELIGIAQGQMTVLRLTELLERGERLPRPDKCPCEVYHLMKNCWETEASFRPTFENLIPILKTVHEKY
Method in brief: (§1)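 Single-point screen: 10 μM test compound, radioactive kinase read-out, percent inhibition reported for each kinase domain.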

[4] = target: JAK2/JAK2 homdimeric complex (Homo sapiens (Human), UniProt O60674); assay: GM-CSF Induced pSTAT5 in Human PBMC; format: cell-based; details: GM-CSF 5 ng/mL for 20 minutes, pSTAT5 by MSD, read-out: PBMC_GMCSF_pSTAT5 IC50
JAK2/JAK2 homdimeric complex, sequence (O60674 whole entry, the tested form may be a part): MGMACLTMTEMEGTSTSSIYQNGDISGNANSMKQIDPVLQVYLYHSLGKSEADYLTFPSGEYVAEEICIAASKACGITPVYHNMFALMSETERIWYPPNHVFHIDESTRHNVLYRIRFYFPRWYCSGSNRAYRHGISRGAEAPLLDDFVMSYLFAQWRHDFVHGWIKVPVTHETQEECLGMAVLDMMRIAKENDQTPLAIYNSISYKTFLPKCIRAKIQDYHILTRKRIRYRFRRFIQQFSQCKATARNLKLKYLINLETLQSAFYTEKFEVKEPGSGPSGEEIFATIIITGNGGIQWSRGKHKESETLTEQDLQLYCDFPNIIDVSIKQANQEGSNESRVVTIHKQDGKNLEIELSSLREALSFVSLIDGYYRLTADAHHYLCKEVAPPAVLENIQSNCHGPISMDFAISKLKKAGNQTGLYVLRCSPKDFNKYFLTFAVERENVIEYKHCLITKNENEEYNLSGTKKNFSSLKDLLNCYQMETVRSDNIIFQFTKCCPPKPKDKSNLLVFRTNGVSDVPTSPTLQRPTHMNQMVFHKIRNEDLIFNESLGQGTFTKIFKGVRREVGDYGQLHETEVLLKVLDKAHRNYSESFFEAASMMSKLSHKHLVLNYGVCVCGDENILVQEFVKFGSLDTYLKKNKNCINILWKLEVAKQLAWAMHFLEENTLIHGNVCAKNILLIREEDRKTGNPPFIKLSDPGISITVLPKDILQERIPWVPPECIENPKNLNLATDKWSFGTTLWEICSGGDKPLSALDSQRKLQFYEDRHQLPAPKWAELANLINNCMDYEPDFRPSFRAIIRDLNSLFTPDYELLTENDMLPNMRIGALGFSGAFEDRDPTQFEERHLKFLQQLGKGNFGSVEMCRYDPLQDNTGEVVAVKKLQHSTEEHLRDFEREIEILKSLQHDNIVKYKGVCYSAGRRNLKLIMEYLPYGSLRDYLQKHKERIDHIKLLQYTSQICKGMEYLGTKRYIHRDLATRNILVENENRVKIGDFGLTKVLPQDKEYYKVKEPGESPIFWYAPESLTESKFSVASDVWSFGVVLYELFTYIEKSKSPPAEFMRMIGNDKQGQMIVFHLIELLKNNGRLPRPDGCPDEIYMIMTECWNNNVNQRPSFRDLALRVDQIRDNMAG
JAK2/JAK2 homdimeric complex, sequence (P32927 17-897 partner): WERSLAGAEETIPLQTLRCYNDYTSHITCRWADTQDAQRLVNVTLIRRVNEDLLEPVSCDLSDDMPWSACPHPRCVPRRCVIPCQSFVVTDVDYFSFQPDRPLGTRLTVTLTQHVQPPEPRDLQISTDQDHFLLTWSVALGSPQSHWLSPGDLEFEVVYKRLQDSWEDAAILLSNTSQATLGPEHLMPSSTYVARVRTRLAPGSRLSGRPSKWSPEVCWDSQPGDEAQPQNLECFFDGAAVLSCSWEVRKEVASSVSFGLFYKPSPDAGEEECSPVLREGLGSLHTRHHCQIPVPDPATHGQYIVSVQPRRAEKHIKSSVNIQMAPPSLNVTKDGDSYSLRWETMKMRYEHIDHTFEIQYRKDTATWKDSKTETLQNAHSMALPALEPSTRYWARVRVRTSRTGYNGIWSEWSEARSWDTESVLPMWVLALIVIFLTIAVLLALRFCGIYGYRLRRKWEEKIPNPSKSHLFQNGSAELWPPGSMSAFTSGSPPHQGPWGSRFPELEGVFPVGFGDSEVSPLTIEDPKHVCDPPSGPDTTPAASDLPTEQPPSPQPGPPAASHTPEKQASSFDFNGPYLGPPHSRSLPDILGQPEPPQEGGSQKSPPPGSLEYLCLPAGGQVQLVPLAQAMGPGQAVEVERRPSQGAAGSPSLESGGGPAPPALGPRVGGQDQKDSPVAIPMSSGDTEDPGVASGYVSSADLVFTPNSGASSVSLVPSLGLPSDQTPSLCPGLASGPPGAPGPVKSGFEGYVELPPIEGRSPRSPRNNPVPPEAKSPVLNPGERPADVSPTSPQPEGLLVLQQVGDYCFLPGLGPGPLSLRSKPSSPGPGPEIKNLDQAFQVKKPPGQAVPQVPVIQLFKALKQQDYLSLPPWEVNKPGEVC

[5] = target: JAK2 kinase domain (JH1) (Homo sapiens (Human), UniProt O60674); assay: JAK2 Radioactive Kinase Assay; format: biochemical; details: 10 μM compound, 10 μM ATP; for inhibition at 10 µM: read-out: JAK2 JH1% Inhibition @ 10 μM
JAK2 kinase domain (JH1), sequence (O60674 849-1124): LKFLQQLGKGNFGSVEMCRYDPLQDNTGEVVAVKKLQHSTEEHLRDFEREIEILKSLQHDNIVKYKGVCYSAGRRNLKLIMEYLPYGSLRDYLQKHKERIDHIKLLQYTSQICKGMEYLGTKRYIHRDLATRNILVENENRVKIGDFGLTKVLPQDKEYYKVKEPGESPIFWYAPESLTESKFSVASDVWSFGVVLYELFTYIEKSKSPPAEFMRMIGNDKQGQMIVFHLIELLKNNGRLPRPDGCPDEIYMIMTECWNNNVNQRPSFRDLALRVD
Method in brief: as §1

human TYK2 (JH2domain-pseudokinase), sequence (P29597 556-888): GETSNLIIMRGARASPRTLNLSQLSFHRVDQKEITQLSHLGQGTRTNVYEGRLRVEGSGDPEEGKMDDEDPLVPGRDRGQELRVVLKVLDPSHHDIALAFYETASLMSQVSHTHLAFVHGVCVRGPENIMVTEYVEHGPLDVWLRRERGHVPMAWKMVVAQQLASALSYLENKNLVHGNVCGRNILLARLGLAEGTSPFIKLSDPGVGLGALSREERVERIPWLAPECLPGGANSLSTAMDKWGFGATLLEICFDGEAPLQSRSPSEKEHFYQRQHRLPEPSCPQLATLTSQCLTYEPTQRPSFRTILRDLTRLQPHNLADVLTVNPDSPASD
Tyk2/JAK2 (heterodimeric complex), sequence (P29597 whole entry, other chains not shown): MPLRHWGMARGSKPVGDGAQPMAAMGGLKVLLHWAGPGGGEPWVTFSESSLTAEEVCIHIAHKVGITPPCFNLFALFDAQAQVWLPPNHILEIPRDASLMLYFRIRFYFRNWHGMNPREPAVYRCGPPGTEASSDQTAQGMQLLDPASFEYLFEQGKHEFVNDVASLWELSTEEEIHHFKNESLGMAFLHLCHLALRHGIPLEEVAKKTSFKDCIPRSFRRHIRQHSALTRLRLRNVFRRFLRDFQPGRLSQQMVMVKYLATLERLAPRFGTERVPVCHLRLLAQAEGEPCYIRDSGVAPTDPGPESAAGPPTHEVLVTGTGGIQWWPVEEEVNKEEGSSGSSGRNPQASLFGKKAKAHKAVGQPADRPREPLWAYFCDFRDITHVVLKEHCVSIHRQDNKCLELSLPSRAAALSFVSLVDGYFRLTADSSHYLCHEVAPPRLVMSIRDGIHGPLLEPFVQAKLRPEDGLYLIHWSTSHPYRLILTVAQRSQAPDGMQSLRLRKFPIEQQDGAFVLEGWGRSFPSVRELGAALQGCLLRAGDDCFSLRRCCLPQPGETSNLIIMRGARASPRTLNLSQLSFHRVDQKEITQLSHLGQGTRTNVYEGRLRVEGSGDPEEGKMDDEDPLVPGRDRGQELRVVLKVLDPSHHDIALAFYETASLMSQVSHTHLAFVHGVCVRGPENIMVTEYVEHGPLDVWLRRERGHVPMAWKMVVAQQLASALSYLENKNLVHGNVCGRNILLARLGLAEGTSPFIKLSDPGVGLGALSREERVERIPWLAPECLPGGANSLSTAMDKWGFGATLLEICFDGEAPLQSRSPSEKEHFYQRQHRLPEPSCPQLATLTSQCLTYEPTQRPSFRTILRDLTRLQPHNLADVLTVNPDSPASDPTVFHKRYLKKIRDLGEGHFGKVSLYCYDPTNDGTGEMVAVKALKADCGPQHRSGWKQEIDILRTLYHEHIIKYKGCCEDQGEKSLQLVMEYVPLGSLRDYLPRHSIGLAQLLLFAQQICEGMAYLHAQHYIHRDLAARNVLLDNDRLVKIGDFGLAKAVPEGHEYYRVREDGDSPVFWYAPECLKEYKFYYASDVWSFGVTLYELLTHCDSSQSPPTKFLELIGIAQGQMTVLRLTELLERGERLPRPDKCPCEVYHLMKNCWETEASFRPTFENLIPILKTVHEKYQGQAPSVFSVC

| Compound | IC50 [1] [nM] | Kd [2] [nM] | inhibition at 10 µM [3] [%] | IC50 [4] [nM] | inhibition at 10 µM [5] [%] | Tyk2 JH1% Inhibition @ 10 μM [3] | JAK2 JH1% Inhibition @ 10 μM [5] |
| --- | --- | --- | --- | --- | --- | --- | --- |
| CNc1cc(Nc2cc(Cl)cn(C3CCN(C)CC3)c2=O)nc2c(C(=O)NC3CC3)cnn12 [I-883] | < 100 | < 0.2 | < 50 | > 12500 | < 50 | – | – |
| CNc1cc(-c2cn(CCN3CCOCC3)c3ncccc23)nc2c(C(=O)N[C@H]3CC[C@@H]3OC)cnn12 [I-886] | < 100 | < 0.2 | < 50 | > 300 | < 50 | – | – |
| CNC(=O)c1occc1Nc1cc(NC)n2ncc(C(=O)NC3CC3)c2n1 [I-887] | < 100 | < 0.2 | < 50 | > 50000 | < 50 | – | – |
| CNC(=O)c1occc1Nc1cc(NC)n2ncc(C(=O)N[C@@H]3C[C@@H]3F)c2n1 [I-888, N-((1R,2S)-2-fluorocyclopropyl)-7-(methylamino)-5-((2-(methylcarbamoyl)furan-3-yl)amino)pyrazolo[1,5-a]pyrimidine-3-carboxamide] | < 100 | < 0.2 | < 50 | > 50000 | < 50 | – | – |
| CNc1cc(Nc2cccn3ccnc23)nc2c(C(=O)NC3CC3)cnn12 [I-891] | < 100 | < 0.2 | < 50 | > 50000 | < 50 | – | – |
| CNc1cc(Nc2cccn3ccnc23)nc2c(C(=O)N[C@@H]3C[C@@H]3F)cnn12 [I-892] | < 100 | < 0.2 | < 50 | > 12500 | < 50 | – | – |
| CNC(=O)c1nscc1Nc1cc(NC)n2ncc(C(=O)N[C@@H]3C[C@@H]3F)c2n1 [I-914] | < 100 | < 0.2 | < 50 | > 50000 | < 50 | – | – |
| CNc1cc(Nc2cccn(C(C)C)c2=O)nc2c(C(=O)N[C@@H]3CC[C@H]3O)cnn12 [I-918] | < 100 | < 0.2 | < 50 | > 50000 | < 50 | – | – |
| CNc1cc(Nc2cc(Cl)cn(C3CCN(C)CC3)c2=O)nc2c(C(=O)N[C@@H]3CC[C@H]3O)cnn12 [I-930] | < 100 | < 0.2 | < 50 | > 50000 | < 50 | – | – |
| CNc1cc(Nc2cccn([C@@H]3CCC[C@H](OC)C3)c2=O)nc2c(C(=O)NCC(C)(C)CO)cnn12 [I-951] | < 100 | < 0.2 | < 50 | > 50000 | < 50 | – | – |

Second part, led by results:

| IC50 [1] [nM] | Kd [2] [nM] | inhibition at 10 µM [3] [%] | IC50 [4] [nM] | inhibition at 10 µM [5] [%] | Compound | Tyk2 JH1% Inhibition @ 10 μM [3] | JAK2 JH1% Inhibition @ 10 μM [5] |
| --- | --- | --- | --- | --- | --- | --- | --- |
| < 100 | < 0.2 | – | > 50000 | – | CNc1cc(Nc2cccn([C@H]3CC[C@](C)(OC)CC3)c2=O)nc2c(C(=O)N[C@@H]3CC[C@H]3OC)cnn12 [I-959] | A (percent inhibition at 10 μM lower than 50) | A (percent inhibition at 10 μM lower than 50) |
| < 100 | < 0.2 | < 50 | > 50000 | < 50 | CNc1cc(-c2cn(C3CC3)c3ncccc23)nc2c(C(=O)NC3CC3)cnn12 [I-960, N-cyclopropyl-5-(1-cyclopropyl-1H-pyrrolo[2,3-b]pyridin-3-yl)-7-(methylamino)pyrazolo[1,5-a]pyrimidine-3-carboxamide] | – | – |
| < 100 | < 0.2 | < 50 | > 50000 | < 50 | CNc1cc(-c2cn(C3CC3)c3ncccc23)nc2c(C(=O)N[C@@H]3C[C@@H]3F)cnn12 [I-961, 5-(1-cyclopropyl-1H-pyrrolo[2,3-b]pyridine-3-yl)-N-((1R,2S)-2-fluorocyclopropyl)-7-(methylamino)pyrazolo[1,5-a]pyrimidine-3-carboxamide] | – | – |
| < 100 | < 0.2 | < 50 | > 50000 | < 50 | CNc1cc(Nc2cccn(C3CCCCC3)c2=O)nc2c(C(=O)N[C@@H]3CC[C@@H]3O)cnn12 [I-1000] | – | – |
| < 100 | < 0.2 | – | > 50000 | – | CNc1cc(Nc2cccn(C3CCCCC3)c2=O)nc2c(C(=O)N[C@@H]3CC[C@H]3O)cnn12 [I-1002] | A (percent inhibition at 10 μM lower than 50) | A (percent inhibition at 10 μM lower than 50) |
